We go through 34 compounds from patent US8815852B2, “Carbamoyloxy arylalkan arylpiperazine analgesics” (SK Biopharmaceuticals Co., Ltd., priority 2007, dated 2014).

This experiment deals with male ICR mouse. Kind of experiment: Acetic acid-induced writhing test in mouse. The class given is in vivo. The note with it: for inhibition in vivo at 10 mg/kg / ED50: Mus musculus; for inhibition in vivo at 10 mg/kg: 1 h, read-out: AA Writhing: Suppression ratio of Pain response; for ED50: unit not given (method doses in mg/kg), read-out: AA Writhing: ED50. The method, then:
2. Acetic Acid-Induced Writhing Test in Mouse
An acetic acid-induced writhing test is one of models for measuring an analgesic effect of drugs. A test material dissolved in a suitable vehicle was orally administered to a male ICR mouse weighing 30 to 35 g at an amount of 10 mg/kg. After 1 hour of the oral administration, […] of an aqueous 0.8% acetic acid solution was intraperitoneally injected into the male ICR mouse to induce the abdominal pain of the male ICR mouse. Right after the administration of acetic acid, the male ICR mouse was put into an empty cage, and the number of writhing behaviors of the mice was counted for 10 minutes. The term “writhing represents a reflex action in which the mouse overtly extends its abdomen by stretching its hind legs due to the abdominal pain. The analgesic effect of the test material is represented by the ‘suppression ratio of pain response’ {[(Writhing number of Vehicle-administered group−Writhing number of Test material-administered group)/(Writhing number of Vehicle-administered group)]×100%} or 50% of Effective amount (ED50 (median effective dose); an amount of test material that is required to suppress 50% of pain behaviors) of Test material. The ED50 (median effective dose) was determined by calculating the suppression ratio of pain response in at least three doses of test materials and subjecting to the linear regression.
A general note: An intraperitoneal irritant provokes the stretching counted in writhing tests.

Where [1] appears, read: po, at 10 po (method: 10 mg/kg oral, 1 hour before acetic acid).

Where two headings read alike, the source gives them in different places.

A word on the ED50: it is the dose at which the effect has come halfway, by size or by number of responders.

Regarding `COc1ccc(N2CCN(CCC(OC(N)=O)c3ccc(Cl)c(C(F)(F)F)c3)CC2)cc1` (centres unmarked) [Example 63, Carbamic acid 1-(4-chloro-3-trifluoromethyl-phenyl)-3-[4-(4-methoxy-phenyl)-piperazin-1-yl]-propyl ester], the inhibition in vivo at 10 mg/kg under setting [1] came to 46%.
On the same count and under the same terms, in the case of `COc1ccc(N2CCN(CCC(OC(N)=O)c3ccccc3[N+](=O)[O-])CC2)cc1` (centres unmarked) [Example 64, Carbamic acid 3-[4-(4-methoxy-phenyl)-piperazin-1-yl]-1-(2-nitro-phenyl)-propyl ester] it was 59%.
The same measure, in the same setting: as for `COc1ccc(N2CCN(CCC(OC(N)=O)c3cccc([N+](=O)[O-])c3)CC2)cc1` (centres unmarked) [Example 65, Carbamic acid 3-[4-(4-methoxy-phenyl)-piperazin-1-yl]-1-(3-nitro-phenyl)-propyl ester], the figure is 39%.
Still for that read-out and setting: as for `COc1ccc(N2CCN(CCC(OC(N)=O)c3ccc(C(F)(F)F)cc3)CC2)cc1` (centres unmarked) [Example 66, Carbamic acid 3-[4-(4-methoxy-phenyl)-piperazin-1-yl]-1-(4-trifluoromethyl-phenyl)-propyl ester], the figure is 95%; as for `COc1ccc(N2CCN(CCC(OC(N)=O)c3ccc4c(c3)OCO4)CC2)cc1` (centres unmarked) [Example 67], 57%.
For the compound `COc1ccc(N2CCN(CCC(OC(N)=O)c3cccc(C(F)(F)F)c3)CC2)cc1` (centres unmarked) [Example 68, Carbamic acid 3-[4-(4-methoxy-phenyl)-piperazin-1-yl]-1-(3-trifluoromethyl-phenyl)-propyl ester], under setting [1], the inhibition in vivo at 10 mg/kg stood at 48%.
In the case of `COc1ccc(N2CCN(CCC(OC(N)=O)c3ccccc3F)CC2)cc1` (centres unmarked) [Example 69, Carbamic acid 1-(2-fluoro-phenyl)-3-[4-(4-methoxy-phenyl)-piperazin-1-yl]-propyl ester], the “AA Writhing: Suppression ratio of Pain response” value (at 10 po (method: 10 mg/kg oral, 1 hour before acetic acid)) was determined as 57%.
Regarding `COc1ccc(N2CCN(CCC(OC(N)=O)c3ccc(Cl)c(Cl)c3)CC2)cc1` (centres unmarked) [Example 70, Carbamic acid 1-(3,4-dichloro-phenyl)-3-[4-(4-methoxy-phenyl)-piperazin-1-yl]-propyl ester], under setting [1], the inhibition in vivo at 10 mg/kg is 51%.
Take `COc1ccc(N2CCN(CCC(OC(N)=O)c3ccc(Cl)cc3)CC2)cc1` (centres unmarked) [Example 71, Carbamic acid 1-(4-chloro-phenyl)-3-[4-(4-methoxy-phenyl)-piperazin-1-yl]-propyl ester]: the inhibition in vivo at 10 mg/kg under setting [1] stood at 61%.
For `NC(=O)OC(CCN1CCN(c2ccc(O)cc2)CC1)c1ccc(Cl)c(C(F)(F)F)c1` (centres unmarked) [Example 72, Carbamic acid 1-(4-chloro-3-trifluoromethyl-phenyl)-3-[4-(4-hydroxy-phenyl)-piperazin-1-yl]-propyl ester], the inhibition in vivo at 10 mg/kg under setting [1] was 53%.
`NC(=O)OC(CCN1CCN(c2ccc(O)cc2)CC1)c1ccc(Cl)c(Cl)c1` (centres unmarked) [Example 73, Carbamic acid 1-(3,4-dichloro-phenyl)-3-[4-(4-hydroxy-phenyl)-piperazin-1-yl]-propyl ester]: the inhibition in vivo at 10 mg/kg under setting [1] was found to be 55%.
Consider `CCOc1ccccc1N1CCN(CCC(OC(N)=O)c2ccc(F)cc2)CC1` (centres unmarked) [Example 74, Carbamic acid 3-[4-(2-ethoxy-phenyl)-piperazin-1-yl]-1-(4-fluoro-phenyl)-propyl ester], for which the inhibition in vivo at 10 mg/kg under setting [1] turned out to be 44%.
For `COc1ccc(Cl)cc1N1CCN(CCC(OC(N)=O)c2ccc(F)cc2)CC1` (centres unmarked) [Example 75, Carbamic acid 3-[4-(5-chloro-2-methoxy-phenyl)-piperazin-1-yl]-1-(4-fluoro-phenyl)-propyl ester], the inhibition in vivo at 10 mg/kg under setting [1] was found to be 14%.
The same measure, in the same setting: as for `NC(=O)OC(CCN1CCN(c2ccc(Cl)c(Cl)c2)CC1)c1ccc(F)cc1` (centres unmarked) [Example 76, Carbamic acid 3-[4-(3,4-dichloro-phenyl)-piperazin-1-yl]-1-(4-fluoro-phenyl)-propyl ester], the figure is 50%.
With `COc1ccc(N2CCN(CCC(OC(N)=O)c3ccc(F)cc3)CC2)cc1` (centres unmarked) [Example 77, Carbamic acid 1-(4-fluoro-phenyl)-3-[4-(4-methoxy-phenyl)-piperazin-1-yl]-propyl ester], the median effective dose (ED50) (po) is 12.4 mg/kg.
Regarding `COc1ccc(N2CCN(CC3CCc4ccccc4C3OC(N)=O)CC2)cc1` (centres unmarked) [Example 82, Carbamic acid 2-[4-(4-methoxy-phenyl)-piperazin-1-ylmethyl]-1,2,3,4-tetrahydro-naphthalen-1-yl ester], the inhibition in vivo at 10 mg/kg under setting [1] came out at 55%.
`NC(=O)OC(CCN1CCN(c2ccc(OCc3ccccc3)cc2)CC1)c1ccccc1` (centres unmarked) [Example 85, Carbamic acid 3-[4-(4-benzyloxyphenyl)-piperazin-1-yl]-1-phenyl-propyl ester]: the inhibition in vivo at 10 mg/kg under setting [1] was determined as 58%.
For `CC(=O)Oc1ccc(N2CCN(CCC(OC(N)=O)c3ccccc3)CC2)cc1` (centres unmarked) [Example 86, Acetic acid 4-[4-(3-carbamoyloxy-3-phenyl-propyl)-piperazin-1-yl]-phenyl ester], the ED50 (po) was 7.52 mg/kg.
With `NC(=O)OC(CCN1CCN(c2ccc(OC3CCCC3)cc2)CC1)c1ccccc1` (centres unmarked) [Example 87, Carbamic acid 3-[4-(4-cyclopentyloxy-phenyl)-piperazin-1-yl]-1-phenyl-propyl ester], the inhibition in vivo at 10 mg/kg under setting [1] turned out to be 58%.
On to `NC(=O)OC(CCN1CCN(c2ccc(O)cc2)CC1)c1ccc(F)cc1` (centres unmarked) [Example 88, Carbamic acid 1-(4-fluoro-phenyl)-3-[4-(4-hydroxy-phenyl)-piperazin-1-yl]-propyl ester], for which the ED50 (po) came out at 7.24 mg/kg.
On to `CC(C)(C)C(=O)Oc1ccc(N2CCN(CCC(OC(N)=O)c3ccc(F)cc3)CC2)cc1` (centres unmarked) [Example 89, 1-(4-fluorophenyl)-3-(4-(4-(pivaloyloxy)phenyl)piperazin-1-yl)propyl carbamate], for which, under setting [1], the inhibition in vivo at 10 mg/kg amounted to 63%.
As for `CCOC(=O)Oc1ccc(N2CCN(CCC(OC(N)=O)c3ccc(F)cc3)CC2)cc1` (centres unmarked) [Example 90, Carbonic acid 4-{4-[3-carbamoyloxy-3-(4-fluoro-phenyl)-propyl]-piperazin-1-yl}-phenyl ethyl ester], for the setting “po”, the ED50 stood at 23.4 mg/kg.
Turning to `NC(=O)OC(CCN1CCN(c2ccc(OC(=O)OCc3ccccc3)cc2)CC1)c1ccc(F)cc1` (centres unmarked) [Example 91, Carbonic acid benzyl ester 4-{4-[3-carbamoyloxy-3-(4-fluoro-phenyl)-propyl]-piperazin-1-yl}-phenyl ester], the inhibition in vivo at 10 mg/kg under setting [1] worked out at 45%.
Take `CC(=O)Oc1ccc(N2CCN(CCC(OC(N)=O)c3ccc(F)cc3)CC2)cc1` (centres unmarked) [Example 92, Acetic acid 4-{4-[3-carbamoyloxy-3-(4-fluoro-phenyl)-propyl]-piperazin-1-yl}-phenyl ester]: the ED50 (ip) is 0.22 mg/kg and the ED50 (po) came to 5.66 mg/kg.
For `COc1ccc(N2CC(C)N(CC[C@@H](OC(N)=O)c3ccccc3)C(C)C2)cc1` (stereo partly drawn) [Example 101, Carbamic acid (R)-3-[4-(4-methoxy-phenyl)-2,6-dimethyl-piperazin-1-yl]-1-phenyl-propyl ester], the inhibition in vivo at 10 mg/kg under setting [1] came out at 48%.
As to `NC(=O)O[C@H](CCN1CCN(c2ccc(O)cc2)CC1)c1ccccc1` [Example 105, (R)-carbamic acid 3-[4-(4-hydroxy-phenyl)-piperazin-1-yl]-1-phenyl-propyl ester], the ED50 (po) was 6.49 mg/kg.
For the compound `COc1ccc(N2CCN(CCC3OC(=O)Nc4ccccc43)CC2)cc1` (centres unmarked) [Example 107, 4-{2-[4-(4-methoxy-phenyl)-piperazin-1-yl]-ethyl}-1,4-dihydro-benzo[d][1,3]oxazin-2-one], the inhibition in vivo at 10 mg/kg under setting [1] was 35%.
`COc1ccc(N2CCN(C(C)CC(OC(N)=O)c3ccccc3)CC2)cc1` (centres unmarked) [Example 108, Carbamic acid 3-[4-(4-methoxy-phenyl)-piperazin-1-yl]-1-phenyl-butyl ester]: the inhibition in vivo at 10 mg/kg under setting [1] was found to be 83.5%.
Same read-out and setting: as for `CC(CC(OC(N)=O)c1ccccc1)N1CCN(c2ccc(Cl)cc2)CC1` (centres unmarked) [Example 109, Carbamic acid 3-[4-(4-chloro-phenyl)-piperazin-1-yl]-1-phenyl-butyl ester], the figure is 84%; as for `CC(CC(OC(N)=O)c1ccccc1)N1CCN(c2ccc([N+](=O)[O-])cc2)CC1` (centres unmarked) [Example 110, Carbamic acid 3-[4-(4-nitro-phenyl)-piperazin-1-yl]-1-phenyl-butyl ester], 17%.
As to `Cc1ccc(N2CCN(C(C)CC(OC(N)=O)c3ccccc3)CC2)cc1C` (centres unmarked) [Example 111, Carbamic acid 3-[4-(3,4-dimethyl-phenyl)-piperazin-1-yl]-1-phenyl-butyl ester], under setting [1], the inhibition in vivo at 10 mg/kg came to 95%.
As to `CC(CC(OC(N)=O)c1ccccc1)N1CCN(c2cnc3ccccc3n2)CC1` (centres unmarked) [Example 112], the inhibition in vivo at 10 mg/kg under setting [1] amounted to 72%.
On the same count and under the same terms, in the case of `COc1ccc(N2CCN(C(C)CC(OC(N)=O)c3ccccc3)CC2)cc1OC` (centres unmarked) [Example 113, Carbamic acid 3-[4-(3,4-dimethoxy-phenyl)-piperazin-1-yl]-1-phenyl-butyl ester] it was 57%.
For the compound `CC(CC(OC(N)=O)c1ccccc1)N1CCN(c2ncc(Cl)cc2Cl)CC1` (centres unmarked) [Example 114], the inhibition in vivo at 10 mg/kg under setting [1] was 39%.
